Laboratory results taken from patent US9493468B2, “Antifungal 5,6-dihydro-4H-pyrrolo[1,2-a][1,4]benzo-diazepines and 6H-pyrrolo[1,2-a][1,4]benzodiazepines substituted with heterocyclic derivatives” (Janssen Pharmaceutica NV, priority 2011, dated 2016).

What was measured:
Type in all cases: cell-based
[1] = test system: Aspergillus fumigatus; experiment: Antifungal activity in vitro, resazurin growth inhibition: Aspergillus fumigatus (B42928)
Summary of the method: (§1)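 Fungi (10^3 cfu/well) grown in RPMI-1640 with L-glutamine, 2% glucose, MOPS pH 7.0, against 2- or 4-fold compound dilutions up to 64 μM. Dermatophytes incubated one week or more at 27° C. Growth inhibition read fluorimetrically (λex 550, λem 590 nm) after resazurin addition and further incubation.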

[2] = test system: Trichophyton mentagrophytes; experiment: Antifungal activity in vitro, resazurin growth inhibition: Trichophyton mentagrophytes (B70554)
Summary of the method: (§2)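 Compound dilutions, with 64 μM as the highest in-test level, are spotted onto plates, then an inoculum of 10^3 cfu in RPMI-1640 plus 2% glucose (MOPS, pH 7.0±0.1) is added. Plates are incubated at species-dependent time and temperature, up to a week or more at 27° C. for dermatophytes.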

[3] = test system: Microsporum canis; experiment: Antifungal activity in vitro, resazurin growth inhibition: Microsporum canis (B68128)
Summary of the method: as §2

[4] = test system: Candida parapsilosis; experiment: Antifungal activity in vitro, resazurin growth inhibition: Candida parapsilosis (B66126)
Summary of the method: as §1

[5] = test system: Cryptococcus neoformans; experiment: Antifungal activity in vitro, resazurin growth inhibition: Cryptococcus neoformans (B66663)
Summary of the method: as §1

[6] = test system: Trichophyton rubrum; experiment: Antifungal activity in vitro, resazurin growth inhibition: Trichophyton rubrum (B68183)
Summary of the method: as §2

[7] = test system: Sporothrix schenkii; experiment: Antifungal activity in vitro, resazurin growth inhibition: Sporothrix schenkii (B62482)
Summary of the method: as §1

SMILES | Inf. E: Aspergillus fumigatus B42928, pIC50 [1] | Inf. G: Trichophyton mentagrophytes B70554, pIC50 [2] | Inf. B: Microsporum canis B68128, pIC50 [3] | Inf. D: Candida parapsilosis B66126, pIC50 [4] | Inf. F: Cryptococcus neoformans B66663, pIC50 [5] | Inf. C: Trichophyton rubrum B68183, pIC50 [6] | Inf. A: Sporothrix schenkii B62482, pIC50 [7]
CCc1csc(C2=NCc3c(Cl)cccc3-n3cccc32)n1 [Compound 68] | <4.19 | 4.80 | 4.91 | <4.19 | 4.38 | 5.58 | <4.19
CCc1csc(C2=NCc3c(Cl)cc(Cl)cc3-n3cccc32)n1 [Compound 69] | <4.19 | <4.19 | 4.71 | <4.19 | <4.19 | 5.09 | <4.19
CCn1cc(C2=NCc3c(Cl)cccc3-n3cccc32)cn1 [Compound 60] | 4.30 | 4.47 | 5.18 | <4.19 | <4.19 | 5.70 | <4.19
Cc1ccc2cc(C3NCc4ccccc4-n4cccc43)oc2c1.Cl (racemic) [Compound 38] | 4.41 | 5.22 | 5.15 | <4.19 | <4.19 | 5.22 | 4.40
Fc1cccc2c1CN=C(c1ccc3sc(C(F)(F)F)nc3c1)c1cccn1-2 [Compound 192] | <4.19 | 5.03 | <4.19 | <4.19 | 4.81 | 4.29 | <4.19
CCn1cc(C2=NCc3c(Cl)ccc(Cl)c3-n3cccc32)cn1 [Compound 61] | <4.19 | 4.39 | 4.66 | <4.19 | 4.44 | 4.52 | <4.19
Cc1ccc2cc(C3NCc4c(Cl)cc(Cl)cc4-n4cccc43)oc2c1.Cl (racemic) [Compound 41] | <4.19 | <4.19 | <4.19 | <4.19 | <4.19 | 4.80 | <4.19
CCc1ccc(C2NCc3c(Cl)cccc3-n3cccc32)nc1.Cl (racemic) [Compound 13] | <4.19 | 5.00 | 5.40 | <4.19 | 4.52 | 5.70 | <4.19
Fc1cccc2cc(C3=NCc4c(Cl)cc(Cl)cc4-n4cccc43)sc12 [Compound 171] | <4.19 | <4.19 | <4.19 | <4.19 | 6.50 | 5.73 | <4.19
Cl.FC(F)(F)c1ncc(C2NCc3c(Cl)cccc3-n3cccc32)cn1 (racemic) [Compound 26] | <4.19 | 4.44 | 4.92 | <4.19 | <4.19 | 5.10 | <4.19
Cc1ccc2oc(C3=NCc4c(Cl)cc(Cl)cc4-n4cccc43)cc2c1 [Compound 136] | <4.19 | <4.19 | 4.41 | <4.19 | <4.19 | 5.67 | <4.19
Cc1cccc2oc(C3=NCc4ccc(Cl)cc4-n4cccc43)cc12 [Compound 133] | <4.19 | <4.19 | <4.19 | <4.19 | 5.83 | <4.19 | <4.19
Cc1ncc(C2=NCc3c(C)cccc3-n3cccc32)cn1 [Compound 99] | <4.19 | <4.19 | 5.10 | <4.19 | <4.19 | 4.89 | <4.19
Cl.Clc1cc2oc(C3NCc4c(Cl)cccc4-n4cccc43)cc2cn1 (racemic) [Compound 51] | <4.19 | 4.94 | 5.40 | <4.19 | 4.45 | 5.63 | <4.19
Cl.Clc1cc(Cl)c2c(c1)-n1cccc1C(c1cc3ccccc3s1)NC2 (racemic) [Compound 56] | <4.19 | 4.48 | <4.19 | <4.19 | <4.19 | 5.71 | <4.19
Clc1cccc2c1CNC(c1ccccn1)c1cccn1-2 (racemic) [Compound 11] | 4.31 | 4.72 | 4.73 | <4.19 | 4.93 | 4.71 | 4.49
Cl.FC(F)(F)c1ccc(C2NCc3c(Cl)cccc3-n3cccc32)cn1 (racemic) [Compound 16] | <4.19 | 5.28 | 5.19 | <4.19 | 4.64 | 5.69 | <4.19
Cc1ccc2oc(C3=NCc4ccc(Cl)cc4-n4cccc43)cc2c1 [Compound 135] | <4.19 | <4.19 | 4.41 | <4.19 | 4.54 | 5.91 | <4.19
c1ccc2c(c1)CN=C(c1ccc3ncsc3c1)c1cccn1-2 [Compound 182] | 4.94 | 5.87 | 5.52 | 4.58 | 4.91 | 6.70 | <4.49
Cn1nc2ccc(C3=NCc4c(Cl)cc(Cl)cc4-n4cccc43)cc2n1 [Compound 109] | <4.19 | 4.37 | <4.19 | <4.19 | 4.34 | 5.70 | <4.19
Br.CCn1ccc(C2NCc3c(Cl)cccc3-n3cccc32)n1 (racemic) [Compound 10] | <4.19 | <4.19 | 4.25 | <4.19 | <4.19 | <4.19 | <4.19
Cc1ccc2cc(C3=NCc4c(Cl)cccc4-n4cccc43)ccc2n1 [Compound 112] | <4.19 | <4.19 | 5.18 | <4.19 | 5.07 | 6.02 | <4.19
Cc1cccc2c1-n1cccc1C(c1cc3ccccc3o1)NC2.Cl (racemic) [Compound 33] | <4.19 | 4.98 | 5.22 | <4.19 | 4.38 | 4.49 | <4.19
Cl.Clc1cccc2c1CNC(c1cc3ccccc3s1)c1cccn1-2 (racemic) [Compound 53] | 5.40 | 5.70 | 5.70 | <4.19 | 5.70 | 6.10 | 4.92
